“Also recorded” adds a separate entry of the source.
How the values were obtained:
[1] = biological target: T1, HO-1 (rat spleen) (Rattus norvegicus, UniProt P06762); assay: HO enzymatic activity, rat spleen microsomal fraction (CO formation from methemalbumin); format: biochemical; conditions: CO formation from methemalbumin, mean ± SD of replicate experiments, read-out: IC50 HO-1 (rat spleen/μM)
T1 construct: Spleen microsomes were used as a source of HO-1; from tissue; host or cells: spleen microsomal fraction of adult male Sprague-Dawley rats
T1 sequence (P06762 1-289): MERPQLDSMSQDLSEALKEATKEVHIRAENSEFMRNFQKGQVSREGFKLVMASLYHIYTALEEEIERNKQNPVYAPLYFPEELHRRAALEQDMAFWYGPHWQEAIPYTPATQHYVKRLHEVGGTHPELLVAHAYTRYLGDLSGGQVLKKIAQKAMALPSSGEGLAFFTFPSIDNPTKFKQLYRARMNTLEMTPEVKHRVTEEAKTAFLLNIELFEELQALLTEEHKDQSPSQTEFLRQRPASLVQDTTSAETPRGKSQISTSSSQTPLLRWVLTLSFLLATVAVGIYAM

[2] = biological target: T2, HO-2 (rat brain) (Rattus norvegicus, UniProt P23711); assay: HO enzymatic activity, rat brain microsomal fraction (CO formation from methemalbumin); format: biochemical; conditions: CO formation from methemalbumin, mean ± SD of replicate experiments, read-out: IC50 HO-2 (rat brain)/μM)
T2 construct: brain microsomes were used as a source of HO-2; from tissue; host or cells: brain microsomal fraction of adult male Sprague-Dawley rats
T2 sequence (P23711 1-315): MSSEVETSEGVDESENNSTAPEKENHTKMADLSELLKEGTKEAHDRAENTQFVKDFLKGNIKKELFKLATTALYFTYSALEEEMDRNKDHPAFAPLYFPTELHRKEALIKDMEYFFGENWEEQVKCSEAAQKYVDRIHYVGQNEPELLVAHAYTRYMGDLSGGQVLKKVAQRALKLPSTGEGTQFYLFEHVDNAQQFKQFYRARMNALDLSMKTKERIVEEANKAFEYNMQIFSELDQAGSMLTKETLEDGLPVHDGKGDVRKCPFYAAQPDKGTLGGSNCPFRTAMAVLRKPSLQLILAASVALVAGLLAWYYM

[3] = system: rat C6 glioma cells; assay: Cell proliferation assay ([3H] thymidine incorporation), C6 glioma cells; format: cell-based; conditions: 6.5 μM, 18 h, hHO-1 transfected rat C6 glioma cells; hydrochloride
Protocol: Rat C6 glioma cells were cultivated in high glucose DMEM supplemented with 10% heat-inactivated fetal bovine serum, […] glutamine, and penicillin-streptomycin (50 U/mL and 50 μg/in L, respectively). […] All cultures were incubated at 37° C. in humidified 95% air-5% CO2.
Cells were seeded in 24-well plates at 1×10^6 cells/mL/well. Upon reaching >90% confluence, cells in each well were transiently transfected with 1.6 μg of plasmid DNA-Lipofectamine 2000 complex using Lipofectamine 2000 method according to manufacturer instructions (Invitrogen). 1.6 μg of plasmid DNA and 4 μL of Lipofectamine 2000 reagent were diluted individually in 100 μL opti-MEM I and incubated for 5 minutes at room temperature with gentle mixing. […]
Cell proliferation was determined by [^3H] thymidine incorporation: Cells were plated in 24-well plates at 10^6 cells/mL/well in complete medium. […] The cells were trypsinized and collected, air-dried on 21 mm glass microfibre filters (Whatman International Ltd., Maidstone, England) and analyzed by scintillation counting in a Wallac-Liquid Scintillator Counter (Perkin Elmer Life Sciences, Boston, Mass., USA). [^3H] thymidine incorporation was expressed as counts per min (cpm) per mL.

[4] = system: SKMEL-V human melanoma cells; assay: Human melanoma model SKMEL-V+ in SCID mice (pilot study), tumor growth; format: in vivo, Mouse (Mus musculus); SCID
Text: Human melanoma cells (“SKMEL-V cells”) were derived from SKMEL-24 cells (ATCC) by over expression of mouse VEGF.
Only those cells with >95% viability were used for in-viva studies.
Once tumors reached a size of approximately 0.7 cm^3, they were removed under sterile condition, sliced into small pieces under a stereo-microscope. Each tissue piece was then re-inoculated subcutaneously. Only pieces of approximately the same size and with no signs of necrosis were used.
All data in this study are presented as mean±SE. Statistical analyses were performed by one-way ANOVA followed by Newman-Keuls post-hoc comparisons to assess significant main effects within groups. Statistical significance was set at p<0.05.

[5] = system: B16-BL6 cells (mouse melanoma); assay: Metastatic B16-BL6 melanoma model, lung surface metastases; format: in vivo; conditions: vehicle control: 101
Protocol: B16-BL6 cells (mouse melanoma). B16-BL6 metastatic variant was derived from B16-F10. This cell variant was obtained from Dr. Linda D. Williams, Dept. of Cancer Biology, MD Anderson Cancer Center, Texas, USA. […] Cells were maintained at 37° C. in a humidified atmosphere (5% CO2, 95% air).
(§1) Control groups received the vehicle alone.

[6] = format: in vivo
Text: as §1

Row | IC50 [1] | IC50 [2] | Structure (SMILES) | 3H-thymidine incorporation, hHO-1 transfected cells [3] | tumor volume compared with vehicle alone ([4]; 30 mg/kg (P<0.03)) | tumor volume compared with vehicle alone ([4]; 60 mg/kg (P<0.02)) | macroscopic nodules in the lungs (average) [5] | toxicity in the combination study ([6]; QC-56 60 mg/kg ip, 4 cycles, chemotherapy drugs ip) | tolerability at multiple doses up to 100 mg/kg ([6]; multiple doses up to 100 mg/kg, intraperitoneal and intravenous routes, hydrochloride)
1 | 6 ± 3 µM | > 100 µM | Cl.FC[C@@H]1CO[C@@](CCc2ccc(Cl)cc2)(Cn2ccnc2)O1 [QC-47, (2R,4S)-1-{2-[2-(4-Chlorophenyl)ethyl]-4-fluoromethyl-[1,3]dioxolan-2-ylmethyl}-1H-imidazole hydrochloride] |  |  |  |  |  | 
2 |  |  | Brc1ccc(CCC2(Cn3ccnc3)OCCO2)cc1.Cl [QC-56, 1-((2-(2-(4-Bromophenyl)ethyl)-1,3-dioxolan-2-yl)methyl)-1H-imidazole hydrochloride] | significantly attenuated the effects of hHO-1 transfection on ^3H-thymidine incorporation; also recorded: this rate of proliferation was attenuated | statistically significantly smaller | statistically significantly smaller | 51 nodules | No apparent toxicity | well tolerated with no apparent signs of toxicity; also recorded: well tolerated

Reference: patent US20120020915A1, “Compounds and Methods for Treating Cancer and Diseases of the Central Nervous System” (QUEENS UNIVERSITY AT KINGSTON, priority 2007, published 2012)
